Experimental data published in patent US11085056B2, “Transfection complexes and methods of using the same” (MOLECULAR TRANSFER, INC., priority 2015, dated 2021).

Experiments:
[1] = tested on: C2C12 Cells; test: Transfection of C2C12 cells with DOTMA/DOPE/peptide and eGFP plasmid, fluorescent plate reader; format: cell-based, mouse; details: DOTMA/DOPE 1:1 plus peptide with RRRRRRRRRRRR (SEQ ID NO: 109) at n terminus; EF1Alpha eGFP plasmid; 0.02 mL complex; 42 hours
Experimental: (§1) Cells were plated to so that on the day of transfection the cells were 60-70% confluent in 96 well tissue culture plates. A DOMTA/DOPE Lipid solution (1:1 molar ratio) at 2 mg/mL in water were mixed with an equal volume of surface ligand peptides that had the nucleic acid binding moiety RRRRRRRRRRRR (SEQ ID NO: 109) covalently linked to the n terminus of each peptide during peptide synthesis. Peptides were at 2 mg/mL in water. The DOTMA/DOPE and the surface ligand peptide solution the transfection reagent was diluted 1 to 1 (v/v) in water. DOMTA/DOPE/PEPTIDE solutions were added to 0.1 mL of a plasmid DNA solution (EF1Alpha eGFP plasmid) at 5 μg/mL in OptiMEM. Lipofectamine 2000 was obtained from Life Technologies.
(§2) All solutions were at room temperature. A volume of 0.2 mL of a 5 μg/mL solution of DNA was aliquoted into each well of a non-tissue cultured treated plate. 4.0 μL of transfection reagents were added to DNA solutions respectively. The transfection reagent and DNA solution was mixed by pipetting up and down twice. Transfection complexes were formed for 10 minutes. After 10 minutes, 0.01 or 0.02 mL of the transfection complex was added to cells. HuVEC, HeLa, human adult keratinocytes, human primary adult fibroblast, and rat cortical neurons all respectively received 0.01 mL of the tramsfectopm complex. Human skeletal muscle cells, mouse C2C12 cells, Jurkat, and THP-1 cells received 0.02 mL of the transfection complex. Cells were incubated for 42 hours at 37° C. at 5% CO2. Plates were read on a fluorescent plate reader. Cells were also examined visually under a microscope to assess the extent of transfection (in terms of the percent of cells transfected) with a fluorescent microscope. Other modes of analysis, for example quantification with B-galactosidase or luciferase reports plasmids can also be used. […] Surface ligand that caused increase expression of GFP over the lipid DOTMA with no surface ligand were considered to enhance transfection or had higher % cells transfected were considered to enhance transfection. Peptides that gave greater than 2 fold enhancement are noted in bold and could be further optimized by adding different transfection enhancers or could be used with different cationic lipids or polymers.

[2] = tested on: Human Fibroblast Cells; test: Transfection of human fibroblast cells with DOTMA/DOPE/peptide and eGFP plasmid, fluorescent plate reader; format: cell-based; details: DOTMA/DOPE 1:1 plus peptide with RRRRRRRRRRRR (SEQ ID NO: 109) at n terminus; EF1Alpha eGFP plasmid; 0.01 mL complex; 42 hours
Experimental: as §1, §2

[3] = tested on: HuVec Cells; test: Transfection of HuVec cells with DOTMA/DOPE/peptide and eGFP plasmid, fluorescent plate reader; format: cell-based; details: DOTMA/DOPE 1:1 plus peptide with RRRRRRRRRRRR (SEQ ID NO: 109) at n terminus; EF1Alpha eGFP plasmid; 0.01 mL complex; 42 hours
Experimental: as §1, §2

[4] = tested on: some examined cell types; test: Transfection expression and % cells transfected over the no peptide control; format: cell-based; details: on some examined cell types
Experimental: as §1, §2

[5] = tested on: HeLa Cells; test: Transfection of HeLa cells with DOTMA/DOPE/peptide and eGFP plasmid, fluorescent plate reader; format: cell-based; details: DOTMA/DOPE 1:1 plus peptide with RRRRRRRRRRRR (SEQ ID NO: 109) at n terminus; EF1Alpha eGFP plasmid; 0.01 mL complex; 42 hours
Experimental: as §1, §2

[6] = tested on: Jurkat Cells; test: Transfection of Jurkat cells with DOTMA/DOPE/peptide and eGFP plasmid, fluorescent plate reader; format: cell-based; details: DOTMA/DOPE 1:1 plus peptide with RRRRRRRRRRRR (SEQ ID NO: 109) at n terminus; EF1Alpha eGFP plasmid; 0.02 mL complex; 42 hours
Experimental: as §1, §2

[7] = tested on: NL-1 iPS Cells; test: Transfection of NL-1 iPS cells with DOTMA/DOPE/peptide and eGFP plasmid, fluorescent plate reader; format: cell-based; details: DOTMA/DOPE 1:1 plus peptide with RRRRRRRRRRRR (SEQ ID NO: 109) at n terminus; EF1Alpha eGFP plasmid; 42 hours
Experimental: as §1, §2

Row | Substance | RF (Relative Fluorescence) of Transfection of C2C12 Cells [1] | RF (Relative Fluorescence) of Transfection of Human Fibroblast Cells [2] | RF (Relative Fluorescence) of Transfection of HuVec Cells [3] | transfection expression and the % cells transfected over the no peptide control [4] | RF (Relative Fluorescence) of Transfection of HeLa Cells [5] | RF (Relative Fluorescence) of Transfection of Jurkat Cells [6] | RF (Relative Fluorescence) of Transfection of NL-1 iPS Cells [7]
1 | 226 (ANGQTPIQRYIK; Peptidic transfection agent) [compound 226] | 1664 | 3431 | 20864 | increased | 7340 | 12976 | 24920
2 | 229 (PPFLMLLKGSTR; Peptidic transfection agent) [compound 229] | 1164 | 6811 | 5452 | increased | 8816 | 8079 | 13491
3 | 230 (WQPPRARI; Peptidic transfection agent) [compound 230] | 2606 | 11771 | 9067 | increased | 8944 | 10229 | 14524
4 | 239 (KNSFMALYLSKGRLVFALG; Peptidic transfection agent) [compound 239] | 10620 | 4084 | 1404 | increased | 2717 | 2343 | 4129
5 | 256 (RQVFQVAYIIIKA; Peptidic transfection agent) [compound 256] | 3207 | 2656 | 3030 | increased | 2243 | 3322 | 1825
6 | 327 (VAEIDGIEL; Peptidic transfection agent) [compound 327] | 2043 | 4662 | 21018 | increased | 5345 | 14546 | 31383
7 | 332 (TWYKIAFQRNRK; Peptidic transfection agent) [compound 332] | 537 | 5178 | 4221 | increased | 9198 | 3052 | 8725
8 | 338 (GTPGPQGIA; Peptidic transfection agent) [compound 338] | 2290 | 5625 | 12000 | increased | 6241 | 4475 | 17288
9 | 345 (TAGSCLRKFSTMFLF; Peptidic transfection agent) [compound 345] | 6569 | 2816 | 2939 | increased | 8493 | 2462 | 7836
10 | 352 (RIQNLLKITNLRIKFVK; Peptidic transfection agent) [compound 352] | 3324 | 3059 | 3130 | increased | 32126 | 3150 | 11628
11 | 354 (SINNTAVMQRLT; Peptidic transfection agent) [compound 354] | 1912 | 4998 | 19284 | increased | 4403 | 16705 | 24043
12 | 359 (KAFDITYVRLKF; Peptidic transfection agent) [compound 359] | 5693 | 3206 | 3024 | increased | 3136 | 1880 | 5548
13 | 361 (YIGSR; Peptidic transfection agent) [compound 361] | 585 | 7014 | 6017 | increased | 3698 | 7006 | 9363
